Marks after values point to notes of the source that are not given here.
Assays:
rat mGlu1a receptor = target: T1, rat mGlu1a receptor (Rattus norvegicus, UniProt P23385); experiment: [3H]Compound A binding to rat mGlu1a receptor CHO-dhfr− membranes (saturation, kinetics, inhibition); details: for observed association rate constant (kob): 2.5 nM radioligand
T1 construct: host or cells: CHO-dhfr- cells

mGlu1 receptor = mGlu1 receptor (Rattus norvegicus, UniProt P23385); experiment: [3H]Compound A binding and autoradiography on rat brain sections
Description: Tissue preparation. Male Wistar rats (200 g) were sacrificed by decapitation. Brains were immediately removed from the skull and were rapidly frozen in dry-ice-cooled 2-methylbutane (−40° C.). Brains were then stored at −70° C. until sectioning. Twenty-micrometer-thick sagittal sections were cut using a Leica C3050 cryostat microtome (Leica Microsystems, Wetzlar, Germany) and thaw-mounted on SuperFrost Plus microscope slides (Menzle-glaser, Germany). The sections were then kept at −70° C. until use.
Receptor autoradiography. Sections were thawed and dried under a stream of cold air, preincubated (3×5 min) in 50 mM Tris-HCl, 1.2 mM MgCl2, 2 mM CaCl2, 0.1% BSA pH 7.4 at room temperature. […] After the incubation, the excess of radioligand was washed off (3×5 min) in ice-cold buffer containing 50 mM Tris-HCl, 1.2 mM MgCl2 and 2 mM CaCl2, followed by a rapid dip in cold distilled water. The sections were dried under a stream of cold air and then exposed to [^3H]Hyperfilm (Amersham, UK) for 6 weeks at room temperature. The films were developed manually in Kodak D19 and fixed with Kodak Readymatic. Some sections were exposed to a Fuji Imaging Plate for 2 days at room temperature and scanned using a Fujix Bass 2000 phosphoimager.

rat mGlu4 receptor = target: T2, rat mGlu4 receptor (Rattus norvegicus, UniProt P31423); experiment: [3H]Compound A binding to membranes from CHO-dhfr− cells expressing the rat mGlu4 receptor; details: 20 nM [3H]Compound A, 40 μg membranes
T2 construct: host or cells: CHO-dhfr- cells
Description: (§1) Confluent cells were washed in ice-cold phosphate-buffered saline and stored at −20° C. until membrane preparation. After thawing, cells were suspended in 50 mM Tris-HCl, pH 7.4 and collected through centrifugation for 10 min at 23,500 g at 4° C. The cells were lysed in 10 mM hypotonic Tris-HCl, pH 7.4. After recentrifugation for 20 min at 30,000 g at 4° C., the pellet was homogenized with an Ultra Turrax homogenizer in 50 mM Tris-HCl, pH 7.4. Protein concentrations were measured by the Bio-Rad protein assay using bovine serum albumin as standard.
(§2) After thawing, the membranes were homogenized using an Ultra Turrax homogenizer and suspended in ice-cold binding buffer containing 50 mM Tris-HCl (pH 7.4), 1.2 mM MgCl2, 2 mM CaCl2. For [^3H]Compound A binding, 20 to 160 μg membrane protein and a final concentration of 20 nM [^3H]Compound A was used. As indicated in the results section, different blancs were used to define non-specific binding. Incubation time and temperature as well as filtration were as described for rat mGlu1a receptor CHO-dhfr^− membranes. Expression of rat mGlu2, -3, -5 and mGlu6 receptors was confirmed by specific binding of [^3H]LY341495 (mGlu2, -3 and -6) or [^3H]MPEP (mGlu5). For [^3H]LY341495 binding, 1 nM (mGlu2 and mGlu3) or 10 nM (mGlu6) [^3H]LY341495 was used. […] Assay mixtures were incubated for 30 min (mGlu2 and mGlu3) or 60 min (mGlu6) at 4° C. […]

rat mGlu5 receptor = target: T3, rat mGlu5 receptor (Rattus norvegicus, UniProt P31424); experiment: [3H]Compound A binding to membranes from CHO-dhfr− cells expressing the rat mGlu5 receptor; details: 20 nM [3H]Compound A, 40 μg membranes; Compound 135 as blanc
T3 construct: host or cells: CHO-dhfr- cells
Description: as §1, §2

rat mGlu3 receptor = target: T4, rat mGlu3 receptor (Rattus norvegicus, UniProt P31422); experiment: [3H]Compound A binding to membranes from CHO-dhfr− cells expressing the rat mGlu3 receptor; details: 20 nM [3H]Compound A, 40 μg membranes
T4 construct: host or cells: CHO-dhfr- cells
Description: as §1, §2

rat mGlu2 receptor = target: T5, rat mGlu2 receptor (Rattus norvegicus, UniProt P31421); experiment: [3H]Compound A binding to membranes from CHO-dhfr− cells expressing the rat mGlu2 receptor; details: 20 nM [3H]Compound A, 40 μg membranes
T5 construct: host or cells: CHO-dhfr- cells
Description: as §1, §2

[1] = [3H]Compound A saturation binding in presence of BAY 36-7620 (100 nM), mean ± SD, 3 experiments
[2] = [3H]Compound A saturation binding in presence of CPCCOEt (30 μM), mean ± SD, 3 experiments
[3] = [3H]Compound A saturation binding in presence of NPS 2390 (10 nM), mean ± SD, 3 experiments
[4] = [3H]Compound A saturation binding, control (absence of antagonist), mean ± SD, 3 experiments

T1 sequence (P23385 19-1199): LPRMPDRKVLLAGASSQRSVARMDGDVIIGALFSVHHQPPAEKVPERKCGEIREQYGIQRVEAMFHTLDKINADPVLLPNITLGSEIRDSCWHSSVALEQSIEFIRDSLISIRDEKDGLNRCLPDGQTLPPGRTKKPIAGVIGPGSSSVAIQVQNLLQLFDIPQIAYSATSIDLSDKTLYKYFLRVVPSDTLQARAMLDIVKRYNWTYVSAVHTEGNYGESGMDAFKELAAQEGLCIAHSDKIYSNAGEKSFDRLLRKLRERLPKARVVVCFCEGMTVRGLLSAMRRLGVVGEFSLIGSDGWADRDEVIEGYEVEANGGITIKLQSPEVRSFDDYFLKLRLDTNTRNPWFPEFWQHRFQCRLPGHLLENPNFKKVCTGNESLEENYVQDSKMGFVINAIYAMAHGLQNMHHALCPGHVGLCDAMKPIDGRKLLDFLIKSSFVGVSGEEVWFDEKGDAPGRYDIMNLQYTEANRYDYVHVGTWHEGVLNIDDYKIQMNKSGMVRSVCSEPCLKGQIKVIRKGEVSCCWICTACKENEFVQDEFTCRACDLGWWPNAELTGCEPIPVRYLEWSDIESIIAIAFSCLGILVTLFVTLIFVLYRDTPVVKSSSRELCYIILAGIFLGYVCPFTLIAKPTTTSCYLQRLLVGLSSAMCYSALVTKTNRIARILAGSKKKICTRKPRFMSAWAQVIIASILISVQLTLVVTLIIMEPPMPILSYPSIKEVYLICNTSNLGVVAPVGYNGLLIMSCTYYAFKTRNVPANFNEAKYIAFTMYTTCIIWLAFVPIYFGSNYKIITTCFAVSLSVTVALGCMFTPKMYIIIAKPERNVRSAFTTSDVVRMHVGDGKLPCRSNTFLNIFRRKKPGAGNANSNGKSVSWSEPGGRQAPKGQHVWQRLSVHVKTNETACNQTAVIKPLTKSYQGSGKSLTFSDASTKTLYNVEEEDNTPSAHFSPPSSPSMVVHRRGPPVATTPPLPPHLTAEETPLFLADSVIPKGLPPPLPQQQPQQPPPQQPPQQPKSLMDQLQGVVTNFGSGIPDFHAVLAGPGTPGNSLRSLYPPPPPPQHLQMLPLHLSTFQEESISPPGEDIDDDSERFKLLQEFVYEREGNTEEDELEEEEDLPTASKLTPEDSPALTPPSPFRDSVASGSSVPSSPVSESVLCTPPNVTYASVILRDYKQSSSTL
T4 sequence (P31422 23-879): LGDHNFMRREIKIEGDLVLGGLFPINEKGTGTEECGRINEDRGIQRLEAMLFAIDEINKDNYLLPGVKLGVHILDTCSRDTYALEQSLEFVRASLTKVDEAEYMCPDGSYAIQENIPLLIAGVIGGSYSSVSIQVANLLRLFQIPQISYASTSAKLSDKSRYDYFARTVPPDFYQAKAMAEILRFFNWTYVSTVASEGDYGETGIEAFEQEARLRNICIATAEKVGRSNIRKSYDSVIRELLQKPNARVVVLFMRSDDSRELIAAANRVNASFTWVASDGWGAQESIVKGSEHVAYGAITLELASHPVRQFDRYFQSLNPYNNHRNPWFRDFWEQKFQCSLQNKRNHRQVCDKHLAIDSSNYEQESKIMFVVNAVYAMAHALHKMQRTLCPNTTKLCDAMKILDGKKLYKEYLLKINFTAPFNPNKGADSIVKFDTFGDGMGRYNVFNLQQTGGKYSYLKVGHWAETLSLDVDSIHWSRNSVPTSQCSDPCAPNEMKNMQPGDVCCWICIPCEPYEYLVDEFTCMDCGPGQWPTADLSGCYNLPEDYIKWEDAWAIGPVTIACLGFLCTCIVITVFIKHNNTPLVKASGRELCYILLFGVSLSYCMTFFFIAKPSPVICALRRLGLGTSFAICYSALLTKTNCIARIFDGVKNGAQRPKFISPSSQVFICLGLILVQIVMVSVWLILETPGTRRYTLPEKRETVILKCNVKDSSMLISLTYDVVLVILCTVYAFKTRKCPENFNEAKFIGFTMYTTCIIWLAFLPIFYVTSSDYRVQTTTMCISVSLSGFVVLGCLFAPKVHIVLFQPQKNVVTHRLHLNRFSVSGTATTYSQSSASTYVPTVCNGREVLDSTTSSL
T5 sequence (P31421 19-872): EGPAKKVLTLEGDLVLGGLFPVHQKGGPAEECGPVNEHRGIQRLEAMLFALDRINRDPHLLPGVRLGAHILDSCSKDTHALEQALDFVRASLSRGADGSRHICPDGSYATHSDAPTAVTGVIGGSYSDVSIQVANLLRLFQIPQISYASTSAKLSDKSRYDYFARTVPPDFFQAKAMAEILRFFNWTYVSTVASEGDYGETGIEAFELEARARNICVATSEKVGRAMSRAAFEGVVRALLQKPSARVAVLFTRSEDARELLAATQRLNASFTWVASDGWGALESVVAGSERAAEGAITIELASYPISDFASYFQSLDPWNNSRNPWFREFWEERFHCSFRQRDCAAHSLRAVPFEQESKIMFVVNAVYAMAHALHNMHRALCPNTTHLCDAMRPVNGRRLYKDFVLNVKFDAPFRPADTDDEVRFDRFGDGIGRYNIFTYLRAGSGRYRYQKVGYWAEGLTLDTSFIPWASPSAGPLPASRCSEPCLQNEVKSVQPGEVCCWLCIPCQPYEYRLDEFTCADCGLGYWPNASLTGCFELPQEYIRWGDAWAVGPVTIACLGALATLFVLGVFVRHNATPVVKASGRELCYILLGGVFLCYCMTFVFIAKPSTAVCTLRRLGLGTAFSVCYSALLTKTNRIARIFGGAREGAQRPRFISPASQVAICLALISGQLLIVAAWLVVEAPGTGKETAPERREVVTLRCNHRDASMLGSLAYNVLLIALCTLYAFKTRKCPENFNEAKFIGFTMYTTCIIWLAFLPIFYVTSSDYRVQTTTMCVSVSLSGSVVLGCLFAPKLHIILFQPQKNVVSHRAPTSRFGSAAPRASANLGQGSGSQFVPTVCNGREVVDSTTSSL
T2 sequence (P31423 33-912): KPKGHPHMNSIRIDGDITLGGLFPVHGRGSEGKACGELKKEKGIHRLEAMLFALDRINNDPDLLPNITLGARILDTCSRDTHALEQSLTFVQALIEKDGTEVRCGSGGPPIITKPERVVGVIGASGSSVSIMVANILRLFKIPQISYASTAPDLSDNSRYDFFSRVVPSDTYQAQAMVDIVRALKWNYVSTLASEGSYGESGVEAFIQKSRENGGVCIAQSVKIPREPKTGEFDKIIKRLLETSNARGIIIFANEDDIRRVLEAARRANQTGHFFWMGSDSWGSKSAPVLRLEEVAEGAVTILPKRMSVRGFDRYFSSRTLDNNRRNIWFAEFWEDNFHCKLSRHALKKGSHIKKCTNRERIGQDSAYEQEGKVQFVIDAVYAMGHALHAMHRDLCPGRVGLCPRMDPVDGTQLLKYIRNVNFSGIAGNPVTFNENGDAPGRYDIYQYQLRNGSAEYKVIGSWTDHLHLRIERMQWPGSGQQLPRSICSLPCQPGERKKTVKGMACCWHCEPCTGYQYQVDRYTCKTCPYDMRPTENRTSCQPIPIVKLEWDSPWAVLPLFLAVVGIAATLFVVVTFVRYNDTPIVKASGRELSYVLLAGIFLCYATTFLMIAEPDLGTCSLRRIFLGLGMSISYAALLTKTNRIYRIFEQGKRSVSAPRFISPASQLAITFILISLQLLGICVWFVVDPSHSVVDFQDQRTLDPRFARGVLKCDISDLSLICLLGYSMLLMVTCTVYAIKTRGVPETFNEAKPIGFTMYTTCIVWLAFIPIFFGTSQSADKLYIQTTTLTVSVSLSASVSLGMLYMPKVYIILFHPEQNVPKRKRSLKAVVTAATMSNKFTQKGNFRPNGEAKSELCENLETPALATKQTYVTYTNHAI
T3 sequence (P31424 21-1203): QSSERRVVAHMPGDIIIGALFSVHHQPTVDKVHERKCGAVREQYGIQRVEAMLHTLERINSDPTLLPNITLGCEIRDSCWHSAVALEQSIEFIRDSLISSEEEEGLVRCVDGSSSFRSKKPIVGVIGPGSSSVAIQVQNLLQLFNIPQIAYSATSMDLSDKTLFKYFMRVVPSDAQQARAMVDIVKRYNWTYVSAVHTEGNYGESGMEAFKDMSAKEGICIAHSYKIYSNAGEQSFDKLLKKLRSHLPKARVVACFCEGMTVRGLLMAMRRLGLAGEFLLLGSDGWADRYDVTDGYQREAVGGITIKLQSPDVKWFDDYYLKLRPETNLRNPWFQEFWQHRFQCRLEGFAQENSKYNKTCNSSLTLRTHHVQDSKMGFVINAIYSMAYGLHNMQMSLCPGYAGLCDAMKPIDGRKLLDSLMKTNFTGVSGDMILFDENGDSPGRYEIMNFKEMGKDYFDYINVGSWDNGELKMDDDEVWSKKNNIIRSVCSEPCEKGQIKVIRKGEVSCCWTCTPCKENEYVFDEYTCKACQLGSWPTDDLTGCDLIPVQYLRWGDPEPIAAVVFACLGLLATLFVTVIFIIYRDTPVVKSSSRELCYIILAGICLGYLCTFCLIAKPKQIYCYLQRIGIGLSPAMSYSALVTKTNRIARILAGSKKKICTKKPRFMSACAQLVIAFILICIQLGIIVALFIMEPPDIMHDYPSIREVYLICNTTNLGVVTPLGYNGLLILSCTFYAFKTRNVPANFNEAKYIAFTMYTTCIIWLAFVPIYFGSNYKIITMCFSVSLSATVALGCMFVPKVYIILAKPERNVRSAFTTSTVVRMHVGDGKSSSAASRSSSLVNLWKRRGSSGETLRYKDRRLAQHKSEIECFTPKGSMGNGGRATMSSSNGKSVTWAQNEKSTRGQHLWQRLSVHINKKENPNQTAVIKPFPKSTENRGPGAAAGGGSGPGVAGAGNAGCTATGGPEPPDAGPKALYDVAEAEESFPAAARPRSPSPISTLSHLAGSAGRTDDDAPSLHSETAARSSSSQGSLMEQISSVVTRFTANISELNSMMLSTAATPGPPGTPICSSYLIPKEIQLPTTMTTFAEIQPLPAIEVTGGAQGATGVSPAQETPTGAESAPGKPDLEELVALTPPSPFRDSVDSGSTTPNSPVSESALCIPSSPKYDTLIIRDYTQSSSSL

[3H]c1ccc(CC(=O)c2ccc3nc4c(cc3c2)CCCO4)cc1 [[^3H]Compound A]
SB (fmoles/mg protein), mGlu1 (rat mGlu1a receptor; 10 nM [3H]Compound A, 20 μg membranes, Compound 135 as blanc, mean ± SD of 3 experiments): 6057 fmoles/mg protein
specific binding as % of the total binding (rat mGlu1a receptor; 20 μg protein per assay, non-specific binding with 1 μM compound 135): ~92%
koff (rat mGlu1a receptor; 4° C.): 0.00208 s⁻¹
specific binding after 2 min incubation as % of the quantity bound at equilibrium (rat mGlu1a receptor; 4° C.): about 70%
time to complete displacement after addition of excess compound 135 (rat mGlu1a receptor; 4° C.): approximately 45 min
observed association rate constant (kob) (rat mGlu1a receptor; 4° C.): 0.6285 min⁻¹
kon (rat mGlu1a receptor; 4° C., read-out: kon (kob−koff/radioligand concentration) (converted)): 1.68e+06 M⁻¹ s⁻¹
time to dissociation after addition of 1 μM compound 135 (rat mGlu1a receptor; 25° C.): ≤ 2 min
observed association rate constant (kob) (rat mGlu1a receptor; 25° C.): 2.571 min⁻¹
observed association rate constant (kob) (rat mGlu1a receptor; 37° C.): 1.523 min⁻¹
Bmax (rat mGlu1a receptor; [1]): 5872 ± 1018 fmoles/mg protein
Kd (rat mGlu1a receptor; [1]): 5.21 ± 1.2 nM
Bmax (rat mGlu1a receptor; [2]): 7009 ± 1231 fmoles/mg protein
Kd (rat mGlu1a receptor; [2]): 3.17 ± 0.9 nM
Bmax (rat mGlu1a receptor; [3]): 6887 ± 2804 fmoles/mg protein
Kd (rat mGlu1a receptor; [3]): 2.9 ± 0.2 nM
Bmax (rat mGlu1a receptor; [4]): 7284 ± 970 fmoles/mg protein
Kd (rat mGlu1a receptor; [4]): 0.73 ± 0.09 nM
incubation time to maximal binding (rat mGlu1a receptor; each incubation temperature (4, 25, 37° C.)): ≤ 5 min
decrease of specific binding at pH 6 (rat mGlu1a receptor; pH 6): 22%
more binding sites labelled than [3H]quisqualate (rat mGlu1a receptor; rat mGlu1a receptor CHO-dhfr− membranes): ~40%
Kd (rat mGlu1a receptor; saturation, 30 min incubation, n=3): 0.9 ± 0.14 nM
specific binding in autoradiography (mGlu1 receptor; CA3 field and dentate gyrus of hippocampal formation, thalamus, olfactory tubercle, amygdala, substantia nigra reticulata): moderate signal
specific binding in autoradiography (mGlu1 receptor; cerebral cortex, caudate putamen, ventral pallidum, nucleus accumbens): lower labelling
specific binding in autoradiography (mGlu1 receptor; molecular layer of the cerebellum): Very high specific binding
SB (fmoles/mg protein), mGlu4 (rat mGlu4 receptor; Compound 135 as blanc): 82 fmoles/mg protein
SB (fmoles/mg protein), mGlu4 (rat mGlu4 receptor; various blancs: 0.1 mM L-SOP): 57^b fmoles/mg protein
SB (fmoles/mg protein), mGlu5 (rat mGlu5 receptor): 38 fmoles/mg protein
SB (fmoles/mg protein), mGlu3 (rat mGlu3 receptor; Compound 135 as blanc): 0 fmoles/mg protein
SB (fmoles/mg protein), mGlu3 (rat mGlu3 receptor; various blancs: 1 mM glutamate): 0^a fmoles/mg protein
melting point: 195 °C
SB (fmoles/mg protein), mGlu2 (rat mGlu2 receptor; Compound 135 as blanc): 0 fmoles/mg protein
SB (fmoles/mg protein), mGlu2 (rat mGlu2 receptor; various blancs: 1 mM glutamate): 34^a fmoles/mg protein
